# Results published in patent US20110118226A1 (priority 2008, published 2011).
# What was measured:
# [1] = Stability of danazol in analysis medium and receptor phase (3% cetrimide solution); assay type: physicochemical; details: analysis medium (mobile phase) and receptor phase (3% cetrimide solution)
# [2] = cited from earlier work
smiles,measurement,setting,value
"C#C[C@]1(O)CC[C@H]2[C@@H]3CCC4=Cc5oncc5C[C@]4(C)[C@H]3CC[C@@]21C [Danazol, (17α)-Pregna-2,4-dien-20-yno[2,3-d]isoxazol-17β-ol]",Time for which danazol was stable,[1],30 h
same,Bioavailability of oral danazol,[2],11%
